Test results from US8012935B2, “Synthetic peptides and methods for treating cancer invasion and metastasis” (priority 2002, dated 2011).

Key:
[1] = system: human melanoma cells A2058; assay: MATRIGEL invasion and migration by melanoma cells A2058; type: cell-based
Procedure: The inhibitory effects of these oligopeptides on the MATRIGEL™ invasion and migration through the MATRIGEL™ membrane by various cancer cells were evaluated using “Improved MATRIGEL™ Invasion Chamber” (Becton Dickinson, USA).
(§1) The studies were conducted using “Improved MATRIGEL™ Invasion Chambers” (Becton Dickinson, USA).
(§2) In studies with human melanoma cells, human fibroblasts-NHDF (Clonetics) were seeded on MATRIGEL™ inserts and allowed to reach confluence. This was done to closely simulate in vivo conditions surrounding cancer cells in the body. Human melanoma cells A2058 were then seeded on the insert. Conditioned media from the fibroblast culture supplemented with various levels of chosen oligopeptide were added to the chamber. The system was incubated for about 24 hours. At the end of the period the cells on the upper surface of the insert were wiped off. The cells that had invaded the MATRIGEL™ membrane and had migrated to the lower surface of the insert were stained with “quick stain” and were counted under the microscope. […] The inhibitory activity of the control was considered as “0”. The media from invasion assays were saved for zymogram studies.

[2] = system: human breast cancer cells MCF7; assay: MATRIGEL invasion and migration by breast cancer cells MCF7; type: cell-based; conditions: for inhibition of MATRIGEL invasion: MCF7
Procedure: as §1, §2
(§3) In studies with human breast cancer cells MCF7 the procedure was essentially similar to that used for melanoma cells, except that MRC5 (ATCC) fibroblasts were used in place of NHDF.

[3] = system: human breast cancer cells MDA-MB 231; assay: MATRIGEL invasion by breast cancer cells MDA-MB 231; type: cell-based; conditions: 150 μM
Procedure: as §1, §2, §3
In studies with human breast cancer cells MDA-MB 231 the fibroblast-MRC5 cells were plated in the wells. The rest of the procedure remained the same as in studies with MCF7 cells.

[4] = system: MMP-2 secreted by the cancer cells; assay: Zymogram studies of media from invasion assays; type: cell-based, human; conditions: zymogram gels
Procedure: as §2
The media (25-30 μl) from various wells in invasion studies were applied to NOVEX® zymogram gels (Invitrogen). The gels were developed and stained as recommended by the manufacturer. The matrix metalloproteinases (MMPs) were identified on the basis of their known molecular weights.

[5] = comparison of oligopeptides (FIG. 2), concentration not given, about 24 hours

LPPDVQRVD (listed as Homo sapiens)
inhibition of MATRIGEL invasion [1, 5]: about 20%

PRKPKWDK (listed as Homo sapiens) [synthetic oligopeptide corresponding to amino acids 85 to 92 of MMP-2]
inhibition of MATRIGEL invasion ([1]; 50 μM (FIG. 3)): about 37%
inhibition of MATRIGEL invasion ([1]; 100 μM concentration): 63%
inhibition of MATRIGEL invasion ([1]; 150 μM (FIG. 3)): 73%
inhibition of MATRIGEL invasion [1, 5]: 73%
inhibition of MATRIGEL invasion ([2]; 150 μM (FIG. 4)): about 70%
inhibition of MATRIGEL invasion ([2]; 200 μM (FIG. 4)): about 90%
inhibition of the invasion of cancer cells ([2]; summary statement, cell line and concentration not stated): about 90%
inhibition of MATRIGEL invasion [3]: about 94%
inhibitory effect on the amount of MMP-2 secreted [4]: did not show any inhibitory effect

TMRKPRCGNPDVAN (listed as Homo sapiens) [reference compound]
inhibition of MATRIGEL invasion [1, 5]: about 11%

GDVAPKTDKE (listed as Homo sapiens)
inhibition of MATRIGEL invasion ([1]; 100 μM concentration): did not show any activity
